Data on 40 molecules can be found in patent publication US20130029981A1, “COMPOUNDS, COMPOSITIONS, AND METHODS FOR CONTROLLING BIOFILMS” (Katholieke Universiteit Leuven, priority 2009, published 2013).

In the experiment the test system is S. Typhimurium ATCC14028. Kind of experiment: Static peg assay for prevention of biofilm formation (Calgary device, crystal violet). The format is cell-based, Salmonella Typhimurium. On the procedure:
(§1) Evaluation of the biofilm inhibitory activity of some substituted 2-amino-1H-imidazoles of the invention was carried out by growing up biofilms of S. Typhimurium ATCC14028 or SL1344 or Pseudomonas aeruginosa PA14 in the presence of different concentrations (1/2 dilution series) of biofilm inhibitors, by using the Calgary biofilm device. After an incubation period of 24 hours at 25° C. or 37° C. or 48 hours at 16° C. the biofilms were visualized by crystal violet staining. In the next step the stain was extracted from the biofilm with 30% acetic acid. The absorbance of the resolubilized stain at 570 nm is a measure of the amount of biofilm formed.
In examples 2 and 3, the following materials and methods were used.
The device used for biofilm formation is a platform carrying 96 polystyrene pegs (Nunc no. 445497) that fits as a microtiter plate lid with a peg hanging into each microtiter plate well (Nunc no. 269789). Biofilm formation assays were carried out at 16° C., 25° C. and 37° C.
For biofilm assays at 16° C. and 25° C., two-fold serial dilutions of the compounds in 100 μl liquid TSB 1/20 broth per well were prepared in the microtiter plate. Subsequently, an overnight culture of S. Typhimurium ATCC14028 or SL1344 (grown up in LB medium) was diluted 1:100 into TSB 1/20 broth and 100 μl (ca. 10^6 cells) was added to each well of the microtiter plates, resulting in a total amount of 200 μl medium per well. The pegged lid was placed on the microtiter plate and the plate was incubated for 48 hours at 16° C. or for 24 hours at 25° C. without shaking. During this incubation period biofilms were formed on the surface of the pegs. In case of the assay at 16° C., after 24 hours the lid was transferred into a new plate with medium and the specific molecules used for testing. […] For quantification of biofilm formation, the pegs were washed once in 200 μl phosphate buffered saline (PBS). The remaining attached bacteria were stained for 30 minutes with 200 μl 0.1% (w/v) crystal violet in an isopropanol/methanol/PBS solution (v/v 1:1:18). Excess stain was rinsed off by placing the pegs in a 96-well plate filled with 200 μl distilled water per well. After the pegs were air dried (30 min), the dye bound to the adherent cells was extracted with 30% glacial acetic acid (200 μl). The OD570 of each well was measured using the VERSAmax microtiter plate reader. The IC50 value for each compound was determined from concentration gradients in two or three independent experiments (with 2 or 3 repeats per experiment), by using the GraphPad software of Prism.
For biofilm assays at 37° C., two-fold serial dilutions of the compounds in 50 μl liquid CFA broth per well were prepared in the microtiter plate. Subsequently, an overnight culture of S. Typhimurium ATCC 14028 was diluted 1:100 into CFA broth and 100 μl (ca. 10^6 cells) was added to each well of the microtiter plates, resulting in a total amount of 150 μl medium per well. The pegged lid was placed on the microtiter plate and the plate was incubated for 24 hours at 37° C. without shaking. During incubation the plates were placed in a humidity controlled container to prevent evaporation of the growth medium. Quantification of biofilm formation was performed similarly as described above for the assays at 16° C. and 25° C.
as §1, with “imidazo[1,2-a]pyrimidinium bromide salts” for “2-amino-1H-imidazoles”

[1] abbreviates: 25° C., 24 hours, Table 15, read-out: (1) IC50 (biofilm inhibition).
[2] abbreviates: 25° C., Table 16, read-out: S. Typhimurium IC50 (biofilm formation).
[3] abbreviates: Salmonella enterica, 25° C., 24 hours, Table 15, read-out: (1) IC50 (biofilm inhibition).
[4] abbreviates: 25° C., Table 11, read-out: IC50 (biofilm formation).
Where [5] appears, read: 25° C., Table 14, read-out: IC50 biofilm inhibition.
Setting [6] is: 25° C., Table 19, read-out: IC50 (biofilm formation).
Where [7] appears, read: S. Typhimurium ATCC 14028, 25° C., read-out: S. Typhimurium IC50 (biofilm formation).
Where [8] appears, read: S. Typhimurium ATCC 14028, 25° C., read-out: IC50 for biofilm inhibition (25° C.).
Setting [9] is: Salmonella enterica, 25° C., Table 11, read-out: IC50 (biofilm formation).
[10] abbreviates: Salmonella enterica, 25° C., Table 14, read-out: IC50 biofilm inhibition.

Where two headings read alike, the source gives them in different places.

On to `CCCCCCCCCCN1c2nccc[n+]2CC1(O)c1ccc(-c2ccc(-c3ccc([N+](=O)[O-])cc3)cc2)cc1` (racemic), for which the IC50 (commonly the concentration that gives 50% inhibition) under setting [1] worked out at 525 µM.

With `CN1c2nccc[n+]2CC1(O)c1ccc(Cl)cc1` (racemic) [Compound 15], the IC50 under setting [2] was 225 µM.

`CN1c2nccc[n+]2CC1(O)c1ccc([N+](=O)[O-])cc1` (racemic) [Compound 28]: the IC50 under setting [2] was found to be 698 µM.

As for `CCCCCCCCCCN1c2nccc[n+]2CC1(O)c1cccc2ccccc12` (centres unmarked) [1-decyl-2-hydroxy-2-(1-naphthalenyl)-2,3-dihydro-1H-imidazo[1,2-a]pyrimidin-4-ium bromide], under setting [3], the IC50 was determined as 68.9 µM.

On to `CCCCCCCCCCN1c2nccc[n+]2CC1(O)c1cccc(Br)c1` (centres unmarked) [1-decyl-2-hydroxy-2-(3-bromophenyl)-2,3-dihydro-1H-imidazo[1,2-a]pyrimidin-4-ium bromide], for which the IC50 under setting [3] amounted to 33.8 µM.

Regarding `CCCCCCCCCCN1c2nccc[n+]2CC1(O)c1ccc(S(C)(=O)=O)cc1` (centres unmarked) [1-decyl-2-hydroxy-2-(4-methylsulfonylphenyl)-2,3-dihydro-1H-imidazo[1,2-a]pyrimidin-4-ium bromide], the IC50 under setting [3] amounted to 21.9 µM.

On to `CCCCCCCCCCN1c2nccc[n+]2CC1(O)c1ccc(SC)cc1` (centres unmarked) [1-decyl-2-hydroxy-2-(4-methylthiophenyl)-2,3-dihydro-1H-imidazo[1,2-a]-pyrimidin-4-ium bromide], for which, under setting [3], the IC50 was determined as 45.7 µM.

As to `CCCCCCCCCCN1c2nccc[n+]2CC1(O)c1ccc(-c2ccc([N+](=O)[O-])cc2)cc1` (centres unmarked) [1-decyl-2-hydroxy-2-(4′-nitro[1,1′-biphenylyl]-4-yl)-2,3-dihydro-1H-imidazo[1,2-a]pyrimidin-4-ium bromide], the IC50 under setting [1] was determined as 200 µM.

On to `CCCCCCCC[n+]1c(-c2ccc(-c3ccc(-c4ccccc4)cc3)cc2)cn2cccnc21.[O-][Cl+3]([O-])([O-])[O-]` [1-octyl-2-([1,1′:4′,1″-terphenyl]-4-yl)-imidazo[1,2-a]pyrimidin-1-ium perchlorate], for which the IC50 (Salmonella enterica, 24 h, read-out: (1) IC50 (biofilm inhibition)) was determined as 5.03 µM.

For the molecule `CN1c2nccc[n+]2CC1(O)c1ccc(F)cc1` (centres unmarked) [Compound 37], the IC50 under setting [2] was > 800 µM.

As for `CCCCN1c2nccc[n+]2CC1(O)c1ccc(F)cc1` (centres unmarked) [Compound 38], the 50% inhibitory concentration (IC50) by setting is: under setting [4], 175 µM; under setting [5], 175 µM; under setting [2], 163 µM.

`CCCCCCCCCCN1c2nccc[n+]2CC1(O)c1ccc(F)cc1` (centres unmarked) [Compound 40]: the IC50 under setting [1] was found to be 20 µM and the IC50 under setting [2] stood at 20 µM.

Regarding `CCCCN1c2nccc[n+]2CC1(O)c1ccc(Br)cc1` (centres unmarked) [Compound 41], the IC50 worked out at 64.9 µM under setting [4], 64.9 µM under setting [5] and 90.1 µM under setting [2].

Take `CC(C)CN1c2nccc[n+]2CC1(O)c1ccc(Br)cc1` (centres unmarked) [Compound 42]: the IC50 under setting [2] amounted to 5.2 µM.

`CCCCCN1c2nccc[n+]2CC1(O)c1ccc(Br)cc1` (centres unmarked) [Compound 43]: the IC50 under setting [2] was 1.7 µM.

For `CN1c2nccc[n+]2CC1(O)c1cccc([N+](=O)[O-])c1` (centres unmarked) [Compound 44], the IC50 under setting [2] worked out at 564 µM.

In the case of `CCCCN1c2nccc[n+]2CC1(O)c1ccc(OC)cc1` (centres unmarked) [Compound 45], under setting [2], the 50% inhibitory concentration (IC50) came out at 314 µM.

Take `CCCCCCCCCCN1c2nccc[n+]2CC1(O)c1ccc(OC)cc1` (centres unmarked) [Compound 47]: the IC50 runs as follows: under setting [1], 18.6 µM; under setting [2], 18.6 µM.

For the molecule `CC(C)CN1c2nccc[n+]2CC1(O)c1ccc(Cl)c(Cl)c1` (centres unmarked) [Compound 48], under setting [2], the IC50 worked out at 8 µM.

For `CCCCCCCCCCN1c2nccc[n+]2CC1(O)c1ccc(Cl)c(Cl)c1` (centres unmarked) [Compound 50], the IC50 was found to be 32.4 µM under setting [1] and 32.4 µM under setting [2].

On to `O=[N+]([O-])c1ccc(C2(O)C[n+]3cccnc3N2C2CC2)cc1` (centres unmarked) [Compound 68], for which the IC50 (25° C., Table 18, read-out: S. Typhimurium IC50 (biofilm formation)) is 125 µM.

For the molecule `O=[N+]([O-])c1ccc(C2(O)C[n+]3cccnc3N2Cc2ccccc2)cc1` (centres unmarked) [Compound 72], the 50% inhibitory concentration (IC50) turned out to be 222 µM under setting [4], 222 µM under setting [5] and 174 µM under setting [6].

Turning to `COc1ccc(CN2c3nccc[n+]3CC2(O)c2ccc(Br)cc2)cc1` (centres unmarked) [Compound 74], the IC50 reads like this: under setting [4], 105 µM; under setting [5], 105 µM; under setting [6], 110 µM.

Regarding `COc1cccc(CCN2c3nccc[n+]3CC2(O)c2ccc([N+](=O)[O-])cc2)c1` (centres unmarked) [Compound 75], the IC50 came to 124 µM under setting [4], 124 µM under setting [5] and 124 µM under setting [6].

On to `COc1cccc(CCN2c3nccc[n+]3CC2(O)c2ccc(F)cc2)c1` (centres unmarked) [Compound 76], for which the IC50 under setting [6] is 105 µM.

With `CCCCCCCCCNc1nc(-c2ccc(Cl)cc2)c[nH]1` [Compound 89], the IC50 under setting [7] was > 800 µM.

Take `CNc1ncc(-c2ccc(F)c(F)c2)[nH]1` [Compound 112]: the IC50 under setting [7] is 602 µM.

As to `CNc1ncc(-c2ccc(O)cc2)[nH]1` [Compound 113], the IC50 under setting [7] came out at 160 µM.

On to `CCCCNc1nc(-c2ccccc2)c[nH]1` [R1=H, R2=Butyl, R3=H, R4=Ph], for which, under setting [8], the half-inhibitory concentration (IC50) came out at 25 µM.

For the molecule `CCCCNc1nc(-c2ccc(Br)cc2)c[nH]1` [R1=H, R2=Butyl, R3=H, R4=p-Br—Ph], the half-inhibitory concentration (IC50) under setting [8] came to 7 µM.

With `CCCCNc1nc(-c2ccc(OC)cc2)c[nH]1` [R1=H, R2=Butyl, R3=H, R4=p-MeO—Ph], the concentration for half-maximal inhibition (IC50) under setting [8] turned out to be 49 µM.

In the case of `O=[N+]([O-])c1ccc(-c2c[nH]c(NC3CCCCC3)n2)cc1` [R1=H, R2=Cyclohexyl, R3=H, R4=p-NO2—Ph], under setting [8], the IC50 was found to be 44 µM.

In the case of `CNc1nc(-c2ccc(F)cc2)c[nH]1` [R1=H, R2=Methyl, R3=H, R4=p-F—Ph], the IC50 under setting [8] came out at 102 µM.

`c1ccc(-c2ccc(-c3c[nH]c(NC4CCCC4)n3)cc2)cc1` [R1=H, R2=cyclopentyl, R3=H, R4=Bi—Ph]: the IC50 under setting [8] stood at 46 µM.

`c1ccc(-c2c[nH]c(NC3CCCC3)n2)cc1` [R1=H, R2=cyclopentyl, R3=H, R4=Ph]: under setting [8], the IC50 came out at 53 µM.

Consider `O=[N+]([O-])c1ccc(-c2c[nH]c(NC3CCCC3)n2)cc1` [R1=H, R2=cyclopentyl, R3=H, R4=p-NO2—Ph], for which, under setting [8], the IC50 was 12 µM.

As for `Cc1ccc(-c2c[nH]c(NC(C)C)n2)cc1` [R1=H, R2=i-Propyl, R3=H, R4=p-Me—Ph], the IC50 under setting [8] stood at 99 µM.

For the molecule `CCCCCCN1c2nccc[n+]2C(C)C1(O)c1ccccc1` (centres unmarked) [R1=Hexyl, R3=Ph, R4=Me, 1-hexyl-2-hydroxy-2-phenyl-3-methyl-2,3-dihydro-1H-imidazo[1,2-a]pyrimidin-4-ium bromide], the half-inhibitory concentration (IC50) by setting is: under setting [9], 218 µM; under setting [10], 218 µM.

As for `Cc1ccc(C2(O)C[n+]3cccnc3N2C(C)C)cc1` (centres unmarked) [R1=Isopropyl, R3=4-Me—Ph, R4=H, 1-isopropyl-2-hydroxy-2-(4-methylphenyl)-2,3-dihydro-1H-imidazo[1,2-a]pyrimidin-4-ium bromide], the IC50 runs as follows: under setting [9], 217 µM; under setting [10], 217 µM.

For `N#Cc1ccc(C2(O)C[n+]3cccnc3N2C2CCCCC2)cc1` (centres unmarked) [R1=cyclohexyl, R3=4-CN—Ph, R4=H, 1-cyclohexyl-2-hydroxy-2-(4-cyanophenyl)-2,3-dihydro-1H-imidazo[1,2-a]pyrimidin-4-ium bromide], the IC50 turned out to be 354 µM under setting [9] and 354 µM under setting [10].
